In patent US9714236B2, “Compounds and methods for inhibiting JAK” (AstraZeneca AB, priority 2015, dated 2017):

Assays:
Type in all cases: biochemical
[1] = target: recombinant JAK3 (amino acids 781-1124) (Homo sapiens (Human), UniProt P52333); experiment: Enzyme inhibition studies, JAK3 (peptide phosphorylation, Caliper LC3000); settings: ATP concentration of the tabulated values not stated (assayed at ATP Km 3 μM and at 5 mM)
Method: (§1) Enzyme inhibition studies were performed using recombinant JAK1 (amino acids 866-1154, Life Technologies, #PV4774, Carlsbad, Calif.), JAK2 (amino acids 831-1132), or JAK3 (amino acids 781-1124) under buffer conditions of 50 mM HEPES pH 7.3, 1 mM DTT, 0.01% Tween® 20, 50 μg/mL BSA, and 10 mM MgCl2. JAK enzyme was expressed as an N-terminal GST fusion in insect cells and purified by glutathione-affinity and size-exclusion chromatographies. […] Phosphorylated and unphosphorylated peptides were separated and quantified by a Caliper LC3000 system (Caliper Life Sciences, MA) for calculating percent inhibition.

[2] = target: recombinant JAK2 (amino acids 831-1132) (Homo sapiens (Human), UniProt O60674); experiment: Enzyme inhibition studies, JAK2 (peptide phosphorylation, Caliper LC3000); settings: ATP concentration of the tabulated values not stated (assayed at ATP Km 15 μM and at 5 mM)
Chain of recombinant JAK2 (amino acids 831-1132) (O60674 831-1132): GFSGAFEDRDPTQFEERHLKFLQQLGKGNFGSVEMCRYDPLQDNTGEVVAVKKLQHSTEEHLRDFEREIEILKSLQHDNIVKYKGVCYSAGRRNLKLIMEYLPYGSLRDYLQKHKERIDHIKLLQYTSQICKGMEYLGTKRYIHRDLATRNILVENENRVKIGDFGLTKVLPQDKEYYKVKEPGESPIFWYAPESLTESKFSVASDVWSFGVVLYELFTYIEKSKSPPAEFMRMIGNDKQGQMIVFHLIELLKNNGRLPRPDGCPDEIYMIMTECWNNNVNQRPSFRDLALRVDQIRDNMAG
Method: as §1

[3] = target: recombinant JAK1 (amino acids 866-1154) (Homo sapiens (Human), UniProt P23458); experiment: Enzyme inhibition studies, JAK1 (peptide phosphorylation, Caliper LC3000); settings: ATP concentration not given (assayed at ATP Km 55 μM and at 5 mM)
Chain of recombinant JAK1 (amino acids 866-1154) (P23458 866-1154): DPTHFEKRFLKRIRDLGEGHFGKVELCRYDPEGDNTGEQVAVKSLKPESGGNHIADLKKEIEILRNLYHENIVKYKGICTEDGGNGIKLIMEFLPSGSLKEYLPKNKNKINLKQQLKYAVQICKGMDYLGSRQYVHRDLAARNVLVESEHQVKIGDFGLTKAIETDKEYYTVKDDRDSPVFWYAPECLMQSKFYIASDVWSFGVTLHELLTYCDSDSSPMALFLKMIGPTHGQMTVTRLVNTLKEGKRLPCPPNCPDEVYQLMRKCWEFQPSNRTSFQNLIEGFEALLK
Method: as §1

Chain of recombinant JAK3 (amino acids 781-1124) (P52333 781-1124): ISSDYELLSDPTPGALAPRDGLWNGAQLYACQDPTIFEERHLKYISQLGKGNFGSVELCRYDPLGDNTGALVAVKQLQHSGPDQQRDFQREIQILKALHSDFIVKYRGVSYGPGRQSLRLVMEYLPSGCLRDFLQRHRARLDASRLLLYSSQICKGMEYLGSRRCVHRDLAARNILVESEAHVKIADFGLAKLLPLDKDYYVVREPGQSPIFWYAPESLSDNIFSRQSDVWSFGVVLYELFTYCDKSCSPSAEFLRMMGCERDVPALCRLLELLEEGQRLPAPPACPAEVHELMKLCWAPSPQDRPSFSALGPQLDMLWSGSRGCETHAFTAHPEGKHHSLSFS

Structure (SMILES) | IC50 [1] | IC50 [2] | IC50 [3]
COc1nn(C)cc1Nc1ncc(F)c(-c2c[nH]c3c(NC(=O)[C@@H](C)N4CCN(C)C[C@@H]4C)cccc23)n1 [Example 7a, (2R)-2-[(2S)-2,4-dimethylpiperazin-1-yl]-N-(3-{5-fluoro-2-[(3-methoxy-1-methyl-1H-pyrazol-4-yl)amino]pyrimidin-4-yl}-1H-indol-7-yl)propanamide] | > 30 µM | > 30 µM | 0.359 µM
COc1nn(C)cc1Nc1ncc(Cl)c(-c2c[nH]c3c(NC(=O)[C@@H](C)N4CCN(C)CC4)cccc23)n1 [Example 36, (2R)-N-(3-{5-chloro-2-[(3-methoxy-1-methyl-1H-pyrazol-4-yl)amino]pyrimidin-4-yl}-1H-indol-7-yl)-2-(4-methylpiperazin-1-yl)propanamide] | 19.1 µM | 1.76 µM | 0.007 µM
CCOc1nn(C)cc1Nc1ncc(C)c(-c2c[nH]c3c(NC(=O)[C@@H](CC)N4CCN(C)CC4)cccc23)n1 [Example 62, (2R)-N-(3-{2-[(3-ethoxy-1-methyl-1H-pyrazol-4-yl)amino]-5-methylpyrimidin-4-yl}-1H-indol-7-yl)-2-(4-methylpiperazin-1-yl)butanamide] | > 30 µM | 5.01 µM | < 0.006 µM
CC[C@H](C(=O)Nc1cccc2c(-c3ccnc(Nc4cn(C)nc4OC)n3)c[nH]c12)N1CCN(C)CC1 [Example 47, (2R)-N-(3-{2-[(3-Methoxy-1-methyl-1H-pyrazol-4-yl)amino]pyrimidin-4-yl}-1H-indol-7-yl)-2-(4-methylpiperazin-1-yl)butanamide] | > 30 µM | 6.95 µM | 0.013 µM
CCN1CCN([C@H](C)C(=O)Nc2cccc3c(-c4nc(Nc5cn(C)nc5OC)ncc4C)c[nH]c23)CC1 [Example 16, (2R)-2-(4-ethylpiperazin-1-yl)-N-(3-{2-[(3-methoxy-1-methyl-1H-pyrazol-4-yl)amino]-5-methylpyrimidin-4-yl}-1H-indol-7-yl)propanamide] | > 30 µM | 6.24 µM | 0.019 µM
CC[C@@H](C(=O)Nc1cccc2c(-c3nc(Nc4cn(C)nc4C)ncc3F)c[nH]c12)N1CCN(C)CC1 [Example 50, (2S)-N-(3-{2-[(1,3-dimethyl-1H-pyrazol-4-yl)amino]-5-fluoropyrimidin-4-yl}-1H-indol-7-yl)-2-(4-methylpiperazin-1-yl)butanamide] | > 30 µM | 24.1 µM | 0.265 µM
CCN1CCN([C@H](C)C(=O)Nc2cccc3c(-c4ccnc(Nc5cn(C)nc5OC)n4)c[nH]c23)CC1 [Example 28] | > 30 µM | 11.8 µM | 0.106 µM
CCc1nn(C)cc1Nc1ncc(C)c(-c2c[nH]c3c(NC(=O)[C@@H](C)N4CCN(C)CC4)cccc23)n1 [Example 55, (2R)-N-(3-{2-[(3-ethyl-1-methyl-1H-pyrazol-4-yl)amino]-5-methylpyrimidin-4-yl}-1H-indol-7-yl)-2-(4-methylpiperazin-1-yl)propanamide] | > 30 µM | 4.22 µM | 0.027 µM
COc1nn(C)cc1Nc1ncc(C)c(-c2c[nH]c3c(NC(=O)[C@@H](C)N4CCN(C)[C@H](C)C4)cccc23)n1 [Example 18, (2R)-2-[(3R)-3,4-dimethylpiperazin-1-yl]-N-(3-{2-[(3-methoxy-1-methyl-1H-pyrazol-4-yl)amino]-5-methylpyrimidin-4-yl}-1H-indol-7-yl)propanamide] | > 30 µM | 17.3 µM | 0.057 µM
Cc1cnc(Nc2cn(C)nc2C)nc1-c1c[nH]c2c(NC(=O)[C@@H](C)N3CCN(C)CC3)cccc12 [Example 41, (2R)-N-(3-{2-[(1,3-dimethyl-1H-pyrazol-4-yl)amino]-5-methylpyrimidin-4-yl}-1H-indol-7-yl)-2-(4-methylpiperazin-1-yl)propanamide] | > 30 µM | 2.58 µM | < 0.005 µM

Further lines, results first:

IC50 [1] | IC50 [2] | IC50 [3] | Structure (SMILES)
> 30 µM | > 30 µM | 0.426 µM | CCOc1nn(C)cc1Nc1ncc(F)c(-c2c[nH]c3c(NC(=O)[C@@H](C)N4CCN(CCOC)CC4)cccc23)n1 [Example 9, (2R)-N-(3-{2-[(3-ethoxy-1-methyl-1H-pyrazol-4-yl)amino]-5-fluoropyrimidin-4-yl}-1H-indol-7-yl)-2-[4-(2-methoxyethyl)piperazin-1-yl]propanamide]
> 30 µM | 5.37 µM | 0.01 µM | COc1nn(C)cc1Nc1ncc(C)c(-c2c[nH]c3c(NC(=O)[C@@H](C)N4CCN(C)CC4)cccc23)n1 [Example 34, (2R)-N-(3-{2-[(3-Methoxy-1-methyl-1H-pyrazol-4-yl)amino]-5-methylpyrimidin-4-yl}-1H-indol-7-yl)-2-(4-methylpiperazin-1-yl)propanamide]
> 30 µM | 6.57 µM | 0.043 µM | CCN1CCN([C@H](C)C(=O)Nc2cccc3c(-c4nc(Nc5cn(C)nc5OC)ncc4F)c[nH]c23)CC1 [Example 4, (2R)-2-(4-ethylpiperazin-1-yl)-N-(3-{5-fluoro-2-[(3-methoxy-1-methyl-1H-pyrazol-4-yl)amino]pyrimidin-4-yl}-1H-indol-7-yl)propanamide]
> 30 µM | 0.79 µM | < 0.003 µM | COC[C@H](C(=O)Nc1cccc2c(-c3nc(Nc4cn(C)nc4OC)ncc3C)c[nH]c12)N1CCN(C)CC1 [Example 45, (2R)-3-methoxy-N-(3-{2-[(3-methoxy-1-methyl-1H-pyrazol-4-yl)amino]-5-methylpyrimidin-4-yl}-1H-indol-7-yl)-2-(4-methylpiperazin-1-yl)propanamide]
> 30 µM | 0.322 µM | < 0.003 µM | COC[C@H](C(=O)Nc1cccc2c(-c3nc(Nc4cn(C)nc4C)ncc3F)c[nH]c12)N1CCN(C)CC1 [Example 53, (2R)-N-(3-{2-[(1,3-dimethyl-1H-pyrazol-4-yl)amino]-5-fluoropyimidin-4-yl}-1H-indol-7-yl)-3-methoxy-2-(4-methylpiperazin-1-yl)propanamide]
> 30 µM | > 30 µM | 2.9 µM | COC[C@@H](C(=O)Nc1cccc2c(-c3ccnc(Nc4cn(C)nc4OC)n3)c[nH]c12)N1CCN(C)CC1 [Example 61, (2S)-3-Methoxy-N-(3-{2-[(3-methoxy-1-methyl-1H-pyrazol-4-yl)amino]pyrimidin-4-yl}-1H-indol-7-yl)-2-(4-methylpiperazin-1-yl)propanamide]
> 30 µM | 6.39 µM | 0.009 µM | COc1nn(C)cc1Nc1ncc(C)c(-c2c[nH]c3c(NC(=O)[C@@H](C)N4CCN(C)[C@@H](C)C4)cccc23)n1 [Example 14, (2R)-2-[(3S)-3,4-dimethylpiperazin-1-yl]-N-(3-{2-[(3-methoxy-1-methyl-1H-pyrazol-4-yl)amino]-5-methylpyrimidin-4-yl}-1H-indol-7-yl)propanamide]
> 30 µM | 9.26 µM | 0.069 µM | Cc1nn(C)cc1Nc1nccc(-c2c[nH]c3c(NC(=O)[C@@H](C)N4CCN(C)CC4)cccc23)n1 [Example 57, (2R)-N-(3-{2-[(1,3-dimethyl-1H-pyrazol-4-yl)amino]pyrimidin-4-yl}-1H-indol-7-yl)-2-(4-methylpiperazin-1-yl)propanamide]
> 30 µM | 5.15 µM | 0.028 µM | Cc1nn(C)cc1Nc1ncc(F)c(-c2c[nH]c3c(NC(=O)[C@@H](C)N4CCN(C)CC4)cccc23)n1 [Example 56, (2R)-N-(3-{2-[(1,3-dimethyl-1H-pyrazol-4-yl)amino]-5-fluoropyrimidin-4-yl}-1H-indol-7-yl)-2-(4-methylpiperazin-1-yl)propanamide]
> 30 µM | > 30 µM | 0.49 µM | CCOc1nn(C)cc1Nc1ncc(C)c(-c2c[nH]c3c(NC(=O)[C@@H](C)N4CCN(C)C[C@@H]4C)cccc23)n1 [Example 22, (2R)-2-[(2S)-2,4-dimethylpiperazin-1-yl]-N-(3-{2-[(3-ethoxy-1-methyl-1H-pyrazol-4-yl)amino]-5-methylpyrimidin-4-yl}-1H-indol-7-yl)propanamide]
> 30 µM | > 30 µM | 1.67 µM | COC[C@@H](C(=O)Nc1cccc2c(-c3nc(Nc4cn(C)nc4C)ncc3F)c[nH]c12)N1CCN(C)CC1 [Example 54, (2S)-N-(3-{2-[(1,3-dimethyl-1H-pyrazol-4-yl)amino]-5-fluoropyrimidin-4-yl}-1H-indol-7-yl)-3-methoxy-2-(4-methylpiperazin-1-yl)propanamide]
> 30 µM | > 30 µM | 0.304 µM | COc1nn(C)cc1Nc1nccc(-c2c[nH]c3c(NC(=O)[C@@H](C)N4CCN(C)[C@H](C)C4)cccc23)n1 [Example 30, (2R)-2-[(3R)-3,4-dimethylpiperazin-1-yl]-N-(3-{2-[(3-methoxy-1-methyl-1H-pyrazol-4-yl)amino]pyrimidin-4-yl}-1H-indol-7-yl)propanamide]
> 30 µM | 21.1 µM | 0.106 µM | Cc1cnc(Nc2cn(C)nc2C)nc1-c1c[nH]c2c(NC(=O)[C@H](C)N3CCN(C)CC3)cccc12 [Example 42, (2S)-N-(3-{2-[(1,3-dimethyl-1H-pyrazol-4-yl)amino]-5-methylpyrimidin-4-yl}-1H-indol-7-yl)-2-(4-methylpiperazin-1-yl)propanamide]
